These compounds were tested against T1, HIF-2α (Homo sapiens, UniProt Q99814) (assay: HIF-2α luciferase reporter assay in HIF-Luc-786-O cells). Conditions: Table 3, 20 hours incubation.
T1 construct: host or cells: 786-O cells stably transduced with Cignal Lenti HIF Luc Reporter (only the reporter was introduced, not HIF-2α)
T1 sequence (Q99814 whole entry): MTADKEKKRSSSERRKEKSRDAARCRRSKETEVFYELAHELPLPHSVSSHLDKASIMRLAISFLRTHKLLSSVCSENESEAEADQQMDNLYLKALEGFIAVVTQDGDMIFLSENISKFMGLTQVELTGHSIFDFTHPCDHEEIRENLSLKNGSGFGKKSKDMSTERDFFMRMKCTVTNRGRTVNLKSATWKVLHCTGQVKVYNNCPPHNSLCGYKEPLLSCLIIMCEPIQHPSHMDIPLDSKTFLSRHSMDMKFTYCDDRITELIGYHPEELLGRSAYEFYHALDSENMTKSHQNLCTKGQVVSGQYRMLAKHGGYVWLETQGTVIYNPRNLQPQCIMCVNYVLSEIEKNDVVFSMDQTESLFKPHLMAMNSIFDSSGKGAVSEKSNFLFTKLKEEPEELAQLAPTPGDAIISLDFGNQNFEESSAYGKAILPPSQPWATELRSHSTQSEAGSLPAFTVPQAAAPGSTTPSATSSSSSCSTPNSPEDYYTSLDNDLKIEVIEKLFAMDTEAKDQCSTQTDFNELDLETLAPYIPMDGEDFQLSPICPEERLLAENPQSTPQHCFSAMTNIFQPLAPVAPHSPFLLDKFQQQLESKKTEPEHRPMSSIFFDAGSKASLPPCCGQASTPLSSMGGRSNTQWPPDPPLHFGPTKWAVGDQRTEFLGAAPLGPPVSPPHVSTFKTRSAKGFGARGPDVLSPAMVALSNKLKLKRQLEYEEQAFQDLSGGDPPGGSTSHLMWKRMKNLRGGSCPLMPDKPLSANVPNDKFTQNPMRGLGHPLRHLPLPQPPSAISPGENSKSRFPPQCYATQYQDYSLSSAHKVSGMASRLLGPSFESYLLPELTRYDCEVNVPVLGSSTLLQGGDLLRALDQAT
Type: cell-based
In short: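 786-O cells stably carrying a HIF-responsive luciferase reporter, 20,000/well in OptiMem with 1% DMSO, exposed to compound up to 50 uM for 20 h at 37 °C. ONE-Glo luminescence normalised to DMSO and no-cell controls; IC50 by four-parameter fit.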
`Cc1c(-c2c(F)cc([C@H]3C[C@H](F)[C@H](F)c4cc(F)cc(C#N)c43)c3c2[C@H](O)C(F)(F)C3)cnn1C` [Example 209, (5R,6S)-8-[(1S)-7-(1,5-dimethyl-1H-pyrazol-4-yl)-2,2,6-trifluoro-1-hydroxy-2,3-dihydro-1H-inden-4-yl]-3,5,6-trifluoro-5,6,7,8-tetrahydronaphthalene-1-carbonitrile] was tested, and the IC50 was < 100 nM. With `Cc1ncoc1-c1ccc([C@H]2CC[C@H](F)c3cc(F)cc(C#N)c32)c2c1[C@H](O)C(F)(F)C2` [Example 151, (5S,8R)-8-[(1S)-2,2-difluoro-1-hydroxy-7-(4-methyl-1,3-oxazol-5-yl)-1,3-dihydroinden-4-yl]-3,5-difluoro-5,6,7,8-tetrahydronaphthalene-1-carbonitrile] the IC50 was < 100 nM. In the case of `N#Cc1ccc(-c2c(F)cc([C@H]3CC[C@H](F)c4cc(F)cc(C#N)c43)c3c2[C@H](O)C(F)(F)C3)c(N)c1` [Example 204, (5S,8R)-8-[(1S)-7-(2-amino-4-cyanophenyl)-2,2,6-trifluoro-1-hydroxy-2,3-dihydro-1H-inden-4-yl]-3,5-difluoro-5,6,7,8-tetrahydronaphthalene-1-carbonitrile], the IC50 is reported as < 100 nM. `Cc1c(-c2ccc([C@H]3CC[C@H](F)c4cc(F)cc(C#N)c43)c3c2[C@H](O)C(F)(F)C3)nnn1C` [Example 183, (5S,8R)-8-[(1S)-7-(1,5-dimethyltriazol-4-yl)-2,2-difluoro-1-hydroxy-1,3-dihydroinden-4-yl]-3,5-difluoro-5,6,7,8-tetrahydronaphthalene-1-carbonitrile] showed an IC50 of 100 to 1000 nM. `N#Cc1cc(F)cc2c1[C@@H](c1ccc(-c3ccc(F)cc3N)c3c1CC(F)(F)[C@H]3O)CC[C@@H]2F` [Example 194, (5S,8R)-8-[(1S)-7-(2-amino-4-fluorophenyl)-2,2-difluoro-1-hydroxy-1,3-dihydroinden-4-yl]-3,5-difluoro-5,6,7,8-tetrahydronaphthalene-1-carbonitrile] was tested, and the IC50 was < 100 nM. In the case of `Cc1nccnc1-c1ccc([C@H]2CC[C@H](F)c3cc(F)cc(C#N)c32)c2c1[C@H](O)C(F)(F)C2` [Example 176, (5S,8R)-8-[(1S)-2,2-difluoro-1-hydroxy-7-(3-methylpyrazin-2-yl)-1,3-dihydroinden-4-yl]-3,5-difluoro-5,6,7,8-tetrahydronaphthalene-1-carbonitrile], the IC50 is reported as < 100 nM. `N#Cc1cc(F)cc2c1[C@@H](c1ccc(-c3cnccc3F)c3c1CC(F)(F)[C@H]3O)CC[C@@H]2F` [Example 163, (5S,8R)-8-[(1S)-2,2-difluoro-7-(4-fluoropyridin-3-yl)-1-hydroxy-2,3-dihydro-1H-inden-4-yl]-3,5-difluoro-5,6,7,8-tetrahydronaphthalene-1-carbonitrile] was tested, and the IC50 was < 100 nM. `N#Cc1cc(F)cc2c1[C@@H](c1ccc(-c3ccncc3)c3c1CC(F)(F)[C@H]3O)CC[C@@H]2F` [Example 156, (5S,8R)-8-[(1S)-2,2-difluoro-1-hydroxy-7-pyridin-4-yl-1,3-dihydroinden-4-yl]-3,5-difluoro-5,6,7,8-tetrahydronaphthalene-1-carbonitrile] gave an IC50 of 100 to 1000 nM. For `Cn1nccc1-c1c(F)cc([C@H]2CC[C@H](F)c3cc(F)cc(C#N)c32)c2c1[C@H](O)[C@H](F)C2` [Example 210, (5S,8R)-8-[(1S,2R)-2,6-difluoro-1-hydroxy-7-(2-methylpyrazol-3-yl)-2,3-dihydro-1H-inden-4-yl]-3,5-difluoro-5,6,7,8-tetrahydronaphthalene-1-carbonitrile], the IC50 was < 100 nM. For `Cc1nc(N)ccc1-c1ccc([C@H]2C[C@H](F)[C@H](F)c3cc(F)cc(C#N)c32)c2c1[C@H](O)C(F)(F)C2` [Example 216, (5R,6S,8R)-8-[(1S)-7-(6-amino-2-methylpyridin-3-yl)-2,2-difluoro-1-hydroxy-2,3-dihydro-1H-inden-4-yl]-3,5,6-trifluoro-5,6,7,8-tetrahydronaphthalene-1-carbonitrile], the IC50 was < 100 nM. With `Cc1ccc(-c2ccc([C@H]3CC[C@H](F)c4cc(F)cc(C#N)c43)c3c2[C@H](O)C(F)(F)C3)c(N)n1` [Example 185, (5S,8R)-8-[(1S)-7-(2-amino-6-methylpyridin-3-yl)-2,2-difluoro-1-hydroxy-1,3-dihydroinden-4-yl]-3,5-difluoro-5,6,7,8-tetrahydronaphthalene-1-carbonitrile] the IC50 was < 100 nM. `CS(=O)(=O)c1c(C#N)cc([C@H]2CC[C@H](F)c3cc(F)cc(C#N)c32)c2c1[C@H](O)[C@H](F)C2` [Example 214, (5S,8R)-8-[(1S,2R)-6-Cyano-2-fluoro-1-hydroxy-7-methylsulfonyl-2,3-dihydro-1H-inden-4-yl]-3,5-difluoro-5,6,7,8-tetrahydronaphthalene-1-carbonitrile] showed an IC50 of 100 to 1000 nM. For `N#Cc1cc(F)cc2c1[C@@H](c1ccc(-c3cnc4ccccn34)c3c1CC(F)(F)[C@H]3O)CC[C@@H]2F` [Example 239, (5S,8R)-8-[(1S)-2,2-difluoro-1-hydroxy-7-imidazo[1,2-a]pyridin-3-yl-1,3-dihydroinden-4-yl]-3,5-difluoro-5,6,7,8-tetrahydronaphthalene-1-carbonitrile], the IC50 was < 100 nM. With `N#Cc1cc(F)cc2c1[C@@H](c1ccc(-c3cnc4cccnn34)c3c1CC(F)(F)[C@H]3O)CC[C@@H]2F` [Example 237, (5S,8R)-8-[(1S)-2,2-difluoro-1-hydroxy-7-imidazo[1,2-b]pyridazin-3-yl-1,3-dihydroinden-4-yl]-3,5-difluoro-5,6,7,8-tetrahydronaphthalene-1-carbonitrile] the IC50 was < 100 nM. For `N#Cc1cc(F)cc2c1[C@@H](c1ccc(-c3cccnc3C#N)c3c1CC(F)(F)[C@H]3O)CC[C@@H]2F` [Example 184, 3-[(3S)-7-[(1R,4S)-8-cyano-4,6-difluoro-1,2,3,4-tetrahydronaphthalen-1-yl]-2,2-difluoro-3-hydroxy-1,3-dihydroinden-4-yl]pyridine-2-carbonitrile], the IC50 was < 100 nM. With `Cc1nc2ccccn2c1-c1ccc([C@H]2CC[C@H](F)c3cc(F)cc(C#N)c32)c2c1[C@H](O)C(F)(F)C2` [Example 231, (5S,8R)-8-[(1S)-2,2-difluoro-1-hydroxy-7-(2-methylimidazo[1,2-a]pyridin-3-yl)-1,3-dihydroinden-4-yl]-3,5-difluoro-5,6,7,8-tetrahydronaphthalene-1-carbonitrile] the IC50 was 100 to 1000 nM. With `Cn1nncc1-c1ccc([C@H]2C[C@H](F)[C@H](F)c3cc(F)cc(C#N)c32)c2c1[C@H](O)C(F)(F)C2` [Example 218, (5R,6S,8R)-8-[(1S)-2,2-difluoro-1-hydroxy-7-(1-methyl-1H-1,2,3-triazol-5-yl)-2,3-dihydro-1H-inden-4-yl]-3,5,6-trifluoro-5,6,7,8-tetrahydronaphthalene-1-carbonitrile] the IC50 was < 100 nM.
